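GI50 is the concentration that inhibits growth by half. The concentration for full growth arrest is given as TGI.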
Legend:
Experiment in all cases: inhibition of tumour cell growth, NCI panel, 384-well format
[1] = test system: 786-0 renal
[2] = test system: A498 renal
[3] = test system: A549 NSCLC
[4] = test system: ACHN renal
[5] = test system: BT-549 breast
[6] = test system: CAKI-1 renal
[7] = test system: CCRF-CEM leukemia
[8] = test system: COLO 205 colon
[9] = test system: DU-145 prostate
[10] = test system: EKVX NSCLC
[11] = test system: HCC-2998 colon
[12] = test system: HCT-15 colon
[13] = test system: HL-60(TB) leukemia
[14] = test system: HOP-62 NSCLC
[15] = test system: HOP-92 NSCLC
[16] = test system: HS 578T breast
[17] = test system: HT29 colon
[18] = test system: IGROV1 ovarian
[19] = test system: KM12 colon
[20] = test system: M14 melanoma
[21] = test system: MALME-3M melanoma
[22] = test system: MCF7 breast
[23] = test system: MDA-MB-231 breast
[24] = test system: MDA-MB-435 melanoma
[25] = test system: MDA-MB-468 breast
[26] = test system: MOLT-4 leukemia
[27] = test system: NCI-H226 lung
[28] = test system: NCI-H23 lung
[29] = test system: NCI-H322M lung
[30] = test system: NCI-H460 NSCLC
[31] = test system: NCI-H522 lung
[32] = test system: NCI/ADR-RES ovarian
[33] = test system: OVCAR-3 ovarian
[34] = test system: OVCAR-4 ovarian
[35] = test system: OVCAR-5 ovarian
[36] = test system: OVCAR-8 ovarian
[37] = test system: PC-3 prostate
[38] = test system: RPMI-8226 leukemia
[39] = test system: RXF 393 renal
[40] = test system: SF-268 CNS
[41] = test system: SF-295 CNS
[42] = test system: SF-539 CNS
[43] = test system: SK-MEL-2 melanoma
[44] = test system: SK-MEL-28 melanoma
[45] = test system: SK-MEL-5 melanoma
[46] = test system: SK-OV-3 ovarian
[47] = test system: SN12C renal
[48] = test system: SNB-19 CNS
[49] = test system: SNB-75 CNS
[50] = test system: SR leukemia
[51] = test system: SW-620 colon
[52] = test system: T-47D breast
[53] = test system: TK-10 renal
[54] = test system: U251 glioblastoma
[55] = test system: UACC-257 melanoma
[56] = test system: UACC-62 melanoma

NC(=O)c1ccc(I)c([N+](=O)[O-])c1
GI50 [1]: > 100 µM | TGI [1]: > 100 µM | GI50 [2]: 91.6 µM | TGI [2]: > 100 µM | GI50 [3]: > 100 µM | TGI [3]: > 100 µM | GI50 [4]: > 100 µM | TGI [4]: > 100 µM | GI50 [5]: 71.1 µM | TGI [5]: > 100 µM | GI50 [6]: 20.6 µM | TGI [6]: 36.1 µM | GI50 [7]: 21.4 µM | TGI [7]: 45.3 µM | GI50 [8]: > 100 µM | TGI [8]: > 100 µM | GI50 [9]: > 100 µM | TGI [9]: > 100 µM | GI50 [10]: 19.4 µM | TGI [10]: 35.2 µM | GI50 [11]: 28.2 µM | TGI [11]: 56.2 µM | GI50 [12]: 44.1 µM | TGI [12]: > 100 µM | GI50 [13]: 18 µM | TGI [13]: 32.1 µM | GI50 [14]: 17.9 µM | TGI [14]: 36.7 µM | GI50 [15]: 21.7 µM | TGI [15]: 42.8 µM | GI50 [16]: 32.4 µM | TGI [16]: > 100 µM | GI50 [17]: 44 µM | TGI [17]: > 100 µM | GI50 [18]: 97.7 µM | TGI [18]: > 100 µM | GI50 [19]: 57.4 µM | TGI [19]: > 100 µM | GI50 [20]: 31 µM | TGI [20]: > 100 µM | GI50 [21]: 40.6 µM | TGI [21]: > 100 µM | GI50 [22]: > 100 µM | TGI [22]: > 100 µM | GI50 [23]: 70.2 µM | TGI [23]: > 100 µM | GI50 [24]: > 100 µM | TGI [24]: > 100 µM | GI50 [25]: 10 µM | TGI [25]: 23.3 µM | GI50 [26]: 20.5 µM | TGI [26]: 38.8 µM | GI50 [27]: 53.4 µM | TGI [27]: > 100 µM | GI50 [28]: 24.3 µM | TGI [28]: 52.5 µM | GI50 [29]: 33 µM | TGI [29]: 95.7 µM | GI50 [30]: 78.5 µM | TGI [30]: > 100 µM | GI50 [31]: 15.4 µM | TGI [31]: 30.1 µM | GI50 [32]: > 100 µM | TGI [32]: > 100 µM | GI50 [33]: 23.6 µM | TGI [33]: 58.4 µM | GI50 [34]: 17.9 µM | TGI [34]: 31.9 µM | GI50 [35]: 21 µM | TGI [35]: 39.9 µM | GI50 [36]: > 100 µM | TGI [36]: > 100 µM | GI50 [37]: > 100 µM | TGI [37]: > 100 µM | GI50 [38]: 33 µM | TGI [38]: 78.9 µM | GI50 [39]: 21.4 µM | TGI [39]: 36.3 µM | GI50 [40]: > 100 µM | TGI [40]: > 100 µM | GI50 [41]: > 100 µM | TGI [41]: > 100 µM | GI50 [42]: > 100 µM | TGI [42]: > 100 µM | GI50 [43]: 26.8 µM | TGI [43]: 72.8 µM | GI50 [44]: 44.3 µM | TGI [44]: > 100 µM | GI50 [45]: 25.2 µM | TGI [45]: 89.3 µM | GI50 [46]: 68.7 µM | TGI [46]: > 100 µM | GI50 [47]: 62.7 µM | TGI [47]: > 100 µM | GI50 [48]: > 100 µM | TGI [48]: > 100 µM | GI50 [49]: 21.4 µM | TGI [49]: > 100 µM | GI50 [50]: 25 µM | TGI [50]: 57.3 µM | GI50 [51]: > 100 µM | TGI [51]: > 100 µM | GI50 [52]: 21 µM | TGI [52]: 38.1 µM | GI50 [53]: > 100 µM | TGI [53]: > 100 µM | GI50 [54]: 53.1 µM | TGI [54]: > 100 µM | GI50 [55]: 39.8 µM | TGI [55]: > 100 µM | GI50 [56]: 39 µM | TGI [56]: > 100 µM
